Where two headings read alike, the source gives them in different places.
Assays:
P2X3 [1] = details: Table 3A, oxygen-linked; from Carter et al; cited from earlier work
P2X3 [2] = experiment: Mean pIC50s from Carter et al, P2X3; assay type: cell-based
P2X3 [3] = details: Table 3B, iodo; from Jahangir et al; cited from earlier work
P2X2/3 = biological target: T1, P2X2/3 (Homo sapiens, UniProt P56373+Q9UBL9); details: Table 3B, iodo; from Jahangir et al; cited from earlier work
T1 sequence (P56373 1-397): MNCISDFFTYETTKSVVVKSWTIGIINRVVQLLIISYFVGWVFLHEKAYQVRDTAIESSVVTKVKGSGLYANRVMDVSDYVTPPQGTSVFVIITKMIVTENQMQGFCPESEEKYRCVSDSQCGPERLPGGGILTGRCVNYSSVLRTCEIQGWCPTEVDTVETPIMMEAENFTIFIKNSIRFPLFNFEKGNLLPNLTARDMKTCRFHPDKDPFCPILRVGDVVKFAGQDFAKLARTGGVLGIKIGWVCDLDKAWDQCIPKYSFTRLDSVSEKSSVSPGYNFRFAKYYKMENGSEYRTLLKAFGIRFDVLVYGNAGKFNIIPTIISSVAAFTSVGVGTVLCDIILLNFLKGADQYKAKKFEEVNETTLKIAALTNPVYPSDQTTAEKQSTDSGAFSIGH
T1 sequence (Q9UBL9 1-471): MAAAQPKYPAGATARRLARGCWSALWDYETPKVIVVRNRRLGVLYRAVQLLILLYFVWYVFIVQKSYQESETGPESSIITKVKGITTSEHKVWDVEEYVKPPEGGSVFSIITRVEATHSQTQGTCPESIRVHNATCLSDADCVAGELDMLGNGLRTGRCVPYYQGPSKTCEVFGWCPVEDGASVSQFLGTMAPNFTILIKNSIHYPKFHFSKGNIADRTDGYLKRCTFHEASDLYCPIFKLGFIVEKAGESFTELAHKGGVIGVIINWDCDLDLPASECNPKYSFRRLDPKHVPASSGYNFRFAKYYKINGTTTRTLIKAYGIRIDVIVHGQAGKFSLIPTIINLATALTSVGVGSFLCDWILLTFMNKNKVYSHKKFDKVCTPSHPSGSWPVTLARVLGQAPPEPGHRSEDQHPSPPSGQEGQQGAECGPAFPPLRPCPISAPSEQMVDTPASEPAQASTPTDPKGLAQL

P2X3 [4] = experiment: Mean pIC50s from Jahangir et al, P2X3; assay type: cell-based; details: Table 3B, iodo; ratio from the Jahangir et al pIC50s
[5] = biological target: T2, human P2X3 receptor (homomeric P2X3 channels) (Homo sapiens, UniProt P56373); experiment: FlexStation calcium fluorescence assay, homomeric P2X3 channels in HEK293 cells; assay type: cell-based; details: for IC50: HEK293 cells, hP2X3, agonist 1 μM α,β-meATP, read-out: Average pIC50 P2X3 (converted); for Selectivity P2X3/P2X2/3: Ratio=10^(P2X3pIC50−P2X2/3pIC50)
T2 construct: expressed in transfected cells; host or cells: HEK293 human embryonic kidney cells (HEK-hP2X3)
T2 sequence (P56373 1-397): T1 sequence (P56373 1-397)
Procedure: (§1) 1321N1 human astrocytoma and HEK293 human embryonic kidney cells were stably transfected with human P2X2 and P2X3 receptor subunits to form heteromeric P2X2/3 channels and passaged in flasks. Additionally, HEK293 cells were stably transfected with human P2X3 receptor subunits to form homomeric P2X3 channels.
(§2) Approximately 24 hours before the FlexStation calcium fluorescence experiment, cells were released from their flasks, centrifuged and re-suspended in nutrient medium. The cells were aliquoted into black-wall, clear-bottom 96 well plates at a density of 25,000 cells per well and incubated overnight in a humidified, CO2-enriched (5%) atmosphere at 37° C.
(§3) On the day of the experiment, cells were washed with assay buffer (calcium- and magnesium-free Hank's balanced salt solution, 20 mM HEPES, 2 mM CaCl2; AB) and loaded with 4 μM Fluo-4 (P2X2/3) or Calcium 6 (Molecular Devices, according to manufacturer's instructions; P2X3) calcium-sensitive fluorescent dye in 100 μL AB.
(§4) After 1 hour of dye loading at 37° C., 1321N1-hP2X2/3 cells were washed two times with AB and test compound or vehicle added to each well in a total volume of 150 μL AB. HEK-hP2X3 cells were not washed because the Calcium 6 dye kit includes an extracellular dye that quenches unabsorbed Calcium 6 dye; test compound or vehicle were added directly to the assay plates to achieve the appropriate concentration of test compound in a total volume of 150 μL AB.
(§5) After 20 minutes incubation at room temperature and protected from light, the assay plates were loaded into the FlexStation microplate reader and baseline fluorescence measured with an excitation wavelength of 485 nm and emission wavelength readings centered at 525 nm (515 nm cut off).
(§6) The agonist was dispensed by the FlexStation during fluorescence measurement to construct agonist activation and antagonist inhibition curves. The final agonist concentration for inhibition was 1 μM α,β-meATP for P2X3 and 3 μM ATP for P2X2/3. Peak fluorescence was measured and curves generated using a four parameter nonlinear regression equation.

[6] = biological target: T3, human P2X2/3 (heteromeric P2X2/3 channels) (Homo sapiens, UniProt P56373+Q9UBL9); experiment: FlexStation calcium fluorescence assay, heteromeric P2X2/3 channels in 1321N1 cells; assay type: cell-based; details: 1321N1 cells, hP2X2/3; agonist 3 μM ATP; highest concentration tested is 10 μM; read-out: Average pIC50 P2X2/3 (converted)
T3 construct: expressed in transfected cells; host or cells: 1321N1 human astrocytoma cells (1321N1-hP2X2/3)
T3 sequence (P56373 1-397): T1 sequence (P56373 1-397)
T3 sequence (Q9UBL9 1-471): T1 sequence (Q9UBL9 1-471)
Procedure: as §1, §2, §3, §4, §5, §6

| SMILES | IC50 [5] [nM] | Selectivity P2X3/P2X2/3 [5] | IC50 [6] [nM] | further results |
| --- | --- | --- | --- | --- |
| COc1cc(C(C)C)c(Oc2cnc(N)nc2N)cc1S(C)(=O)=O [Row C, X = O] | – | – | – | P2X3 mean pIC50, X = O (P2X3 [1]): 7.0; Selectivity, X = O (P2X3 [2]): 10 |
| COc1cc(Oc2cnc(N)nc2N)c(C(C)C)cc1OC [Row A, X = O] | – | – | – | P2X3 mean pIC50, X = O (P2X3 [1]): 7.6 |
| COc1cc(C(C)C)c(Oc2cnc(N)nc2NC(CO)CO)cc1I [Row C, R = I] | – | – | – | P2X3 mean pIC50, R = I (P2X3 [3]): 8.7; P2X2/3 mean pIC50, R = I (P2X2/3): 8.3; Selectivity, R = I (P2X3 [4]): 2.5 |
| COc1cc(C(C)C)c(Oc2cnc(N)nc2NCC(O)CO)cc1I (centres unmarked) [Row B, R = I] | – | – | – | P2X3 mean pIC50, R = I (P2X3 [3]): 8.1; P2X2/3 mean pIC50, R = I (P2X2/3): 7.5; Selectivity, R = I (P2X3 [4]): 4.0 |
| COc1cc(C(C)C)c(Oc2cnc(N)nc2N)cc1Cl [Row D, X = O] | – | – | – | P2X3 mean pIC50, X = O (P2X3 [1]): 7.6; Selectivity, X = O (P2X3 [2]; Table 3A, oxygen-linked, ratio from the Carter et al pIC50s): 4 |
| COc1cc(C(C)C)c(Oc2cnc(N)nc2N)cc1I [Row B, X = O] | – | – | – | P2X3 mean pIC50, X = O (P2X3 [1]): 8.0; Selectivity, X = O (P2X3 [2]): 8 |
| COc1cc(C(C)C)c(Oc2cnc(N)nc2NCCO)cc1I [Row A, R = I] | – | – | – | P2X3 mean pIC50, R = I (P2X3 [3]): 8.0; P2X2/3 mean pIC50, R = I (P2X2/3): 7.8; Selectivity, R = I (P2X3 [4]): 1.6 |
| C#Cc1cc(Oc2cnc(N)nc2N)c(C(C)C)nc1OC [Compound 19] | 6.31 | – | 200 | – |
| COc1nc(C(C)C)c(Oc2cnc(N)nc2N)cc1S(N)(=O)=O [Compound 20] | 20 | – | 398 | – |

More lines, main results first:

| IC50 [5] [nM] | Selectivity P2X3/P2X2/3 [5] | IC50 [6] [nM] | SMILES | further results |
| --- | --- | --- | --- | --- |
| 63.1 | 6.5 | 398 | COc1nc(C(C)C)c(Oc2cnc(N)nc2N)cc1I [Compound 15] | – |
| 398 | >27 | > 10000 | COc1cc(Oc2cnc(N)nc2NCCS(C)(=O)=O)c(C(C)C)cc1OC [Compound 41] | – |
| 1000 | >10 | > 10000 | COc1cc(Oc2cnc(N)nc2NCCO)c(C(C)C)cc1OC [Compound 37] | – |
| 398 | 9.3 | 3160 | CCNc1ncc(Oc2cc(OC)c(OC)cc2C(C)C)c(N)n1 [Compound 29] | – |
| 200 | 2.5 | 501 | COc1cc(Oc2cnc(NC3CCC3)nc2N)c(C(C)C)cc1OC [Compound 27] | – |
| 158 | 17 | 2510 | COc1cc(Oc2cnc(N)nc2NCCN(C)C)c(C(C)C)cc1OC [Compound 38] | – |
